Assay results as given in patent publication US11319331B2, “Probe for selective detection of hypochlorous acid (HOCl) under physiological condition, and related methods” (Council of Scientific & Industrial Research, priority 2017, dated 2022).

Experiments:
[1] = S/N=3 where stated; cited from earlier work
[2] = tested on: RAW 264.7 cells; assay: MTT assay, in vitro cytotoxicity / cell viability; details: read-out: IC50 (MTT cell viability), treated 24 hours
[3] = SF-1 10 μM, 2 mM HOCl, PBS-acetonitrile (9:1, v/v), pH 7.2, 37° C.
Experimental: Accordingly, all studies are carried out at physiological relevant pH […].
(§1) Unless and otherwise mentioned, 10 mM and pH 7.2 solution of aq. PBS buffer was used for all spectroscopic studies. All reactive Oxygen species and nitrogen species solutions of 1×10^-2 M were prepared in PBS having pH 7.2 and used with appropriate dilution. All luminescence measurements were done using λEx=550 nm with an emission slit width of 2/2 nm. For all biological studies, 0.6% DMSO in DMEM media was used.

[4] = Experimental: as §1
The detection limit was calculated based on the fluorescence titration.

Compound | detection limit for HOCl/HClO (literature) [1] [nM] | IC50 [2] [µM] | time to completion of reaction with HOCl [3] [min] | detection limit for HOCl ([4]; aq. PBS buffer-acetonitrile (9:1, v/v), 3 s method) [nM] | Detection Limit for HOCl (DL=K*Sb1/S, K=3) ([4]; slope 2.50×109, Sb1 3.59) [nM] | enhancement of luminescence intensity with increasing dose of HOCl ([4]; λEm Max 580 nm, λExt 540 nm) [fold]
CC1=CC(C)=[N+]2C1=C(CCc1[nH]c(C)cc1C)c1c(C)cc(C)n1[B-]2(F)F [BClO] | 0.56 |  |  |  |  | 
E)-4-(2-(5,5-difluoro-1,7,9-trimethyl-10-phenyl-5H-5λ^4,6λ^4-dipyrrolo[1,2-c:2′,1′-f][1,3,2]diazaborinin-3-yl)vinyl)benzene-1,2-diol [SF-1] |  | > 150 | ≤ 15 | 4.3 | 4.3 | 20
